Key:
[1] = DPPH free-radical scavenging reaction
Method: Absorbance of the reaction solution was measured at 517 nm. In this study, vitamin C was regarded as a positive control. Free-radical scavenging rate was calculated in accordance with the following equation: Free-radical scavenging rate (%)=[1−Asample/Acontrol)/Acontrol]×100% Wherein, the Asample means the absorbance of the tested samples, and Acontrol means the absorbance of blank control.

[2] = Determination of reducing capacity (potassium ferricyanide / ferric chloride, absorbance at 700 nm)
Method: 0.5 ml of 200 mM phosphate buffer (pH6.8) containing different concentrations of the (S)/(R)-salvianolic acid T and 0.5 ml of 1.0% (w/v) potassium ferricyanide solution were sucked respectively and cooled on an ice bath after being heated on a water bath (50[…]) for 20 min. 0.5 ml of 10% trichloroacetic acid solution was added and centrifuged at […] for 10 min. 1.0 ml of the resulting supernatant was taken, into which 1.0 ml of distilled water and 0.2 ml of 0.1% (w/v) ferric chloride solution were added, stood still for 10 min and the absorbance was measured at 700 nm. Meanwhile, the blank experiment was carried out. Vitamin C is a strongly reducing substance, acting as positive control in this study. Reducing capacity of the sample is represented by subtracting the absorbance of the blank control from the absorbance of the tested sample. Thus, it means the higher absorbance, the stronger reducing capacity.

[3] = system: mice pulmonary fibrosis induced by bleomycin; test: Anti-pulmonary fibrosis experiment in mice induced by bleomycin; format: in vivo, Kunming mice; details: 3 weeks
Method: Dividing the 40 mice into 4 groups: □ normal control group, given nasal dripping of normal saline, drenched with normal saline; □ model control group:given nasal dripping of bleomycin, drenched with normal saline; □(S)-salvianolic acid T group (16 mg/kg): given nasal dripping of bleomycin, drenched with (S)-salvianolic acid T solution; □(R)-salvianolic acid T group (16 mg/kg): given nasal dripping of bleomycin, drenched with (R)-salvianolic acid T solution; 10 mice in each group.
On the first day of the experiment, the mice were anesthetized with chloral hydrate, each mouse was given disposable nasal dripping of 50 μg bleomycin to establish the pulmonary fibrosis model. On the second day of the experiment, two treatment groups were drenched with (S)/(R)-salvianolic acid T, the model group and the normal group were drenched with equal volume of normal saline, once each day, 3 consecutive weeks. On the 21th day of the experiment, serum was separated from the blood collected from the orbital vein to detect TGF-β1, the mice were killed to take lungs, ground with double distilled water (the ratio of lungs and double distilled water was 1:5 (w/v)) into tissue homogenate, centrifuged to detect the MDA, superoxide dismutase (SOD), catalase (CAT), peroxidase (POD) in the tissues.

[4] = system: rats with myocardial infarction induced by coronary artery ligation; test: Blood biochemical index of rats with myocardial infarction induced by coronary artery ligation; format: in vivo, SD rats; details: for CK / CK-MB / LD / MDA / SOD: serum
[5] = system: rats with myocardial infarction induced by coronary artery ligation; test: Myocardial infarction rate (TTC staining) after coronary artery ligation; format: in vivo, SD rats; details: for myocardial infarction rate: compared with the model group, P<0.05
Method: Clean male SD rats were taken and placed in groups randomly according to the body-weight, including pseudo operation group (distilled water), model group (distilled water), aspirin group, (S)-salvianolic acid T low-dose group, (S)-salvianolic acid T high-dose group, and there were 10 rats in each group. Each group of rats were administrated by gastric administration once a day, continuously for 10 days. […] Recording standard II lead ECG at 5 minutes before surgery, 0 s, 1 min, 5 min, 15 min, 1 h, 4 h after the ligation, to investigate the changes of J point of ECG. Taking out the heart immediately after the end of the experiment, washing away the blood with normal saline, cutting off the atrium and the bottom of the blood vessels, weighing the mass of the ventricle, cutting the ventricle into 5 pieces on average along the atrioventricular groove and putting them into 1% (w/v) TTC solution, dyeing in the water bath at a constant temperature of 37 °C for 5 min, taking digital photos firstly after taking them out, then separating the unstained parts (that is, the infarct parts) and weighing to calculate the percentage of them in the mass of total ventricular (myocardial infarction percentage), and performing t test with ischemia model group. The formula for calculating the infarct percentage is as follows: Infarct percentage (%)=(the mass of pale areas/the mass of the ventricle)×100%

[6] = system: L929 cells induced by TGF-β1; test: Inhibition of L929 cell proliferation induced by TGF-β1 (MTT); format: cell-based; details: Mus musculus, L929, 72 h, 2 μg/L TGF-β1, 72 h, MTT method
Method: L929 cells with a cell population of 5×10^7/L adjusted by DMEM culture solution containing 10% fetal bovine serum were seeded into 96 well plate, cultured for 24 h. Supplementing the same culture medium containing 2 μg/L TGF-β1 and (S)/(R)-salvianolic acid T of different concentrations. There were 6 multiple pores in each group, final concentration of (S)/(R)-salvianolic acid T was set as 0, 1, 3, 10, 20, 40, 80, 150 μmol/L. Removing medium after being cultured for 72 h, assaying the cell activity by MTT method.

[7] = system: rats with myocardial infarction induced by coronary artery ligation; test: J point of ECG in rats with myocardial infarction induced by coronary artery ligation; format: in vivo, SD rats
Method: […] Aspirin: 30 mg/kg body-weight. Clean male SD rats were taken and placed in groups randomly according to the body-weight, including pseudo operation group (distilled water), model group (distilled water), aspirin group, (S)-salvianolic acid T low-dose group, (S)-salvianolic acid T high-dose group, and there were 10 rats in each group. Each group of rats were administrated by gastric administration once a day, continuously for 10 days. […] Recording standard II lead ECG at 5 minutes before surgery, 0 s, 1 min, 5 min, 15 min, 1 h, 4 h after the ligation, to investigate the changes of J point of ECG.

[8] = compared with positive control vitamin C
[9] = sample 0.625 μg/ml, 100 μM DPPH, 20 min, 25° C.
[10] = 16 mg/kg, lung tissue homogenate
[11] = high-dose group, dosage 10 mg/kg

Which “free-radical scavenging compared with vitamin C” value [1, 8] does the source give for `O=C(/C=C/c1ccc(O)c(O)c1/C(=C\c1ccc(O)c(O)c1)C(=O)O)O[C@@H](Cc1ccc(O)c(O)c1)C(=O)O` [(S)-salvianolic acid T] here?
Its value is “much higher free-radical scavenging than that of the vitamin C”.

And the Free-radical scavenging rate [1, 9]?
The Free-radical scavenging rate was 10.32 ± 0.81%.

What about the Free-radical scavenging rate ([1]; sample 1.25 μg/ml) of the same compound?
Its Free-radical scavenging rate is 28.77 ± 2.26%.

What about the Free-radical scavenging rate ([1]; sample 2.5 μg/ml) of the same compound?
Its Free-radical scavenging rate is 44.22 ± 1.95%.

What about the Free-radical scavenging rate ([1]; sample 5 μg/ml) of the same compound?
Its Free-radical scavenging rate is 86.01 ± 8.92%.

What about the Free-radical scavenging rate ([1]; sample 10 μg/ml) of the same compound?
The Free-radical scavenging rate was 98.97 ± 5.41%.

And the “reducing capacity compared with vitamin C” value [2, 8]?
The value was “much stronger than that of vitamin C”.

What about the “reducing capacity (absorbance at 700 nm minus blank control)” value ([2]; sample 3.125 μg/ml) of the same compound?
Its value is 0.157 ± 0.027.

What about the “reducing capacity (absorbance at 700 nm minus blank control)” value ([2]; sample 6.25 μg/ml) of the same compound?
The value was 0.215 ± 0.011.

And the “reducing capacity (absorbance at 700 nm minus blank control)” value ([2]; sample 12.5 μg/ml)?
The value was 0.039 ± 0.012.

What about the “reducing capacity (absorbance at 700 nm minus blank control)” value ([2]; sample 25 μg/ml) of the same compound?
The value was 0.771 ± 0.023.

And the “reducing capacity (absorbance at 700 nm minus blank control)” value ([2]; sample 50 μg/ml)?
The value was 1.573 ± 0.036.

And the “Serum TGF-β1” value ([3]; 16 mg/kg drenched once each day, day 21)?
The value was 263 ± 35 ng/L.

What about the CAT [3, 10] of the same compound?
The CAT was 24.9 ± 2.3 U/g.

And the MDA [3, 10]?
Its MDA is 324 ± 33 µg/g.

What about the POD [3, 10] of the same compound?
Its POD is 15.3 ± 2.1 U/g.

And the SOD [3, 10]?
Its SOD is 57.3 ± 4.9 U/g.

And the “Tissue TGF-β1” value [3, 10]?
Its value is 541 ± 51 pg/g.

And the “Na^+—K^+-ATPase” value [4, 11]?
Its value is 0.005 ± 0.006 μmolPi/10^7 RBC/h.

And the “Na^+—K^+-ATPase” value ([4]; low-dose group, dosage 5 mg/kg)?
Its value is 0.004 ± 0.001 μmolPi/10^7 RBC/h.

What about the CK [4, 11] of the same compound?
Its CK is 0.88 ± 0.22 U/ml.

What about the CK-MB [4, 11] of the same compound?
Its CK-MB is 846.7 ± 144.2 U/L.

And the LD [4, 11]?
The LD was 1.65 ± 0.24 mmol/L.

And the MDA [4, 11]?
The MDA was 6.72 ± 1.54 nmol/mL.

What about the SOD [4, 11] of the same compound?
Its SOD is 241.7 ± 19.8 U/ml.

And the CK ([4]; low-dose group, dosage 5 mg/kg)?
Its CK is 1.18 ± 0.29 U/ml.

And the CK-MB ([4]; low-dose group, dosage 5 mg/kg)?
Its CK-MB is 970.9 ± 225.1 U/L.

And the LD ([4]; low-dose group, dosage 5 mg/kg)?
The LD was 1.67 ± 0.23 mmol/L.

What about the MDA ([4]; low-dose group, dosage 5 mg/kg) of the same compound?
Its MDA is 7.46 ± 1.07 nmol/mL.

And the SOD ([4]; low-dose group, dosage 5 mg/kg)?
Its SOD is 220.3 ± 32.6 U/ml.

What about the “effect on preventing acute myocardial infarction induced by coronary artery ligation” value ([5]; high-dose group compared with aspirin group, FIG. 11 heart biopsy) of the same compound?
The value was “equal effect”.

What about the myocardial infarction rate ([5]; high-dose group) of the same compound?
The myocardial infarction rate was “significantly reduce the myocardial infarction rate”.

What about the IC50 [6] of the same compound?
Its IC50 is 26.1 µM.

What about the J point ([7]; high-dose group, dosage 10 mg/kg, gastric once a day for 10 days, before operation) of the same compound?
The J point was −0.014 ± 0.005 mv.

What about the J point ([7]; high-dose group, dosage 10 mg/kg, 1 min after operation) of the same compound?
The J point was 0.169 ± 0.033 mv.

And the J point ([7]; high-dose group, dosage 10 mg/kg, 5 min after operation)?
The J point was 0.146 ± 0.031 mv.

And the J point ([7]; high-dose group, dosage 10 mg/kg, 15 min after operation)?
The J point was 0.160 ± 0.027 mv.

And the J point ([7]; high-dose group, dosage 10 mg/kg, 1 h after operation)?
Its J point is 0.170 ± 0.014 mv.

What about the J point ([7]; high-dose group, dosage 10 mg/kg, 4 h after operation) of the same compound?
The J point was 0.153 ± 0.028 mv.

And the J point ([7]; low-dose group, dosage 5 mg/kg, gastric once a day for 10 days, before operation)?
Its J point is −0.011 ± 0.003 mv.

What about the J point ([7]; low-dose group, dosage 5 mg/kg, 1 min after operation) of the same compound?
The J point was 0.176 ± 0.050 mv.

What about the J point ([7]; low-dose group, dosage 5 mg/kg, 5 min after operation) of the same compound?
The J point was 0.204 ± 0.010 mv.

And the J point ([7]; low-dose group, dosage 5 mg/kg, 15 min after operation)?
The J point was 0.185 ± 0.096 mv.

What about the J point ([7]; low-dose group, dosage 5 mg/kg, 1 h after operation) of the same compound?
Its J point is 0.206 ± 0.036 mv.

What about the J point ([7]; low-dose group, dosage 5 mg/kg, 4 h after operation) of the same compound?
The J point was 0.194 ± 0.042 mv.

With `CC(=O)Oc1ccccc1C(=O)O` [Aspirin, reference compound] as the compound, how does the “Na^+—K^+-ATPase” value ([4]; aspirin group, dosage 30 mg/kg) read?
Its value is 0.005 ± 0.001 μmolPi/10^7 RBC/h.

What about the CK ([4]; aspirin group, dosage 30 mg/kg) of the same compound?
The CK was 1.01 ± 0.16 U/ml.

What about the CK-MB ([4]; aspirin group, dosage 30 mg/kg) of the same compound?
The CK-MB was 841.9 ± 20.3 U/L.

And the LD ([4]; aspirin group, dosage 30 mg/kg)?
Its LD is 1.75 ± 0.17 mmol/L.

And the MDA ([4]; aspirin group, dosage 30 mg/kg)?
The MDA was 6.84 ± 0.97 nmol/mL.

What about the SOD ([4]; aspirin group, dosage 30 mg/kg) of the same compound?
Its SOD is 221.1 ± 24.7 U/ml.

What about the myocardial infarction rate ([5]; aspirin group (30 mg/kg)) of the same compound?
The myocardial infarction rate was “significantly reduce the myocardial infarction rate”.

And the J point ([7]; aspirin group, dosage 30 mg/kg, gastric once a day for 10 days, before operation)?
Its J point is −0.012 ± 0.005 mv.

What about the J point ([7]; aspirin group, dosage 30 mg/kg, 1 min after operation) of the same compound?
Its J point is 0.172 ± 0.057 mv.

And the J point ([7]; aspirin group, dosage 30 mg/kg, 5 min after operation)?
Its J point is 0.184 ± 0.024 mv.

And the J point ([7]; aspirin group, dosage 30 mg/kg, 15 min after operation)?
Its J point is 0.166 ± 0.025 mv.

And the J point ([7]; aspirin group, dosage 30 mg/kg, 1 h after operation)?
The J point was 0.169 ± 0.036 mv.

And the J point ([7]; aspirin group, dosage 30 mg/kg, 4 h after operation)?
The J point was 0.172 ± 0.021 mv.

Which results are given for `O=C1O[C@H]([C@@H](O)CO)C(O)=C1O` [Vitamin C, reference compound]?
Free-radical scavenging rate [1, 9]: 8.02 ± 0.47%; Free-radical scavenging rate ([1]; sample 1.25 μg/ml): 15.56 ± 1.81%; Free-radical scavenging rate ([1]; sample 2.5 μg/ml): 21.32 ± 1.89%; Free-radical scavenging rate ([1]; sample 5 μg/ml): 56.29 ± 5.93%; Free-radical scavenging rate ([1]; sample 10 μg/ml): 79.51 ± 7.26%

— patent US10626077B2, “Salvianolic acid compound T, preparation method therefor, and use thereof” (TASLY PHARMACEUTICAL GROUP CO., LTD., priority 2013, dated 2020)
